Measured values taken from BindingDB's records for doi:10.1016/j.bmcl.2009.04.116 (Banyu Pharmaceutical, 2009).

target: Nociceptin receptor (Homo sapiens, UniProt P41146); assay: In Vitro Binding Assay (IC50) and In Vitro Agonism/Antagonism Measurements (EC50/IC50); conditions: not given
Procedure: IC50 values are calculated using GraphPad Prism. Agonist/antagonist activities were measured by the [35S]GTPgamma-S binding to proteins using membrane fractions of CHO cells expressing ORL1. Nonspecific binding is determined in the presence of 10 uM unlabeled GTPgammaS. Membrane-bound radioactivity is measured using a TopCount-HTS (PerkinElmer). Specific binding of [35S]GTPgammaS is determined as a difference between the control (in the presence of appropriate concentration of nociceptin), and the baseline (in the presence of DMSO instead of compound). EC50/IC50 values are calculated from % of specific binding in the presence of various concentration of the compound using GraphPad Prism 3.03.

Nociceptin receptor, sequence (P41146 whole entry): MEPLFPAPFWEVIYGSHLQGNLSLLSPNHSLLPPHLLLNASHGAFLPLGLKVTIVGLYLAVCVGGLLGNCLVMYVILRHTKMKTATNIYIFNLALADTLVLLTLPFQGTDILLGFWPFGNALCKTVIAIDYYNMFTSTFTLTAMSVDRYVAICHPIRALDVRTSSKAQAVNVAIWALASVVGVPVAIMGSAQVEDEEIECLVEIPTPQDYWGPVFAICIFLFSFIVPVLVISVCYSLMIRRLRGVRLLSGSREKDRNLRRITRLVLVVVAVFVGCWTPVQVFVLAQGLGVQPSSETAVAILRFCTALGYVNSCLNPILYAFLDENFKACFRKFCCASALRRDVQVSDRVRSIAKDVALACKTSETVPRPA

EC50 | Structure (SMILES)
7.1 nM | Cc1ccc(-c2c(C)c(CNC3CCCC3F)nn2-c2ncccc2Cl)cn1 (stereo not drawn) [arylpyrazole, 27]
4.5 nM | Cc1ccc(-c2c(C)c(CNC3CCC(F)(F)C3)nn2-c2ncccc2Cl)cn1 (stereo not drawn) [arylpyrazole, 29]
1 nM | Cc1ccc(-c2c(C)c(CN[C@H]3CC[C@@H](F)C3)nn2-c2ncccc2Cl)cn1 [arylpyrazole, 28]

Further lines, the compound ahead of its results:

Structure (SMILES) | EC50
Cc1ncc(-c2c(C)c(CN[C@H]3CC[C@@H](F)C3)nn2-c2ncccc2Cl)cc1F [arylpyrazole, 31] | 0.31 nM
Cc1ncc(-c2c(C)c(CNC3CCCC3)nn2-c2ncccc2Cl)cc1F [arylpyrazole, 30] | 1.2 nM

same assay, conditions: pH 7.4; 37 °C

EC50 | Structure (SMILES)
12 nM | Cc1c(CNC2CCCC2)nn(-c2ncccc2Cl)c1-c1ccc(Cl)nc1 [arylpyrazole, 18]
4.7 nM | Cc1ccc(-c2c(C)c(CNC3CCCC3)nn2-c2ncccc2Cl)cn1 [arylpyrazole, 19]
480 nM | Cc1c(CNC(C)C)nn(-c2ccc(Cl)cc2Cl)c1-c1ccc(Cl)cc1 [arylpyrazole, 1]
